Experimental data: PubChem BioAssay AID330 (DTP/NCI, 2004)
Several values for one entry are separate records, joined by “and”; a condition that tells them apart may be missing. Identical values can stand only once. Inconclusive results and toxic doses are left out. The calls were made as follows: active = survival T/C of 150% or more; inactive = T/C below 125% in these data.

Tested on: P388 leukemia ip, CD2F1 mice, survival T/C
Assay: NCI In Vivo Anticancer Drug Screen. Data for tumor model P388 Leukemia (intraperitoneal) in CD2F1 (CDF1) mice
Conditions: endpoint: median survival time, higher = longer survival
How it was run: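 Mice carrying the transplanted tumor received test compound or vehicle. Survival was recorded in each group, and the value is the treated-group measurement divided by that of the vehicle-treated control group.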

[1] = dose: 50.0 mg/kg/injection, schedule: Q01DX005 (ip), vehicle: saline with Tween-80
[2] = dose: 100.0 mg/kg/injection, schedule: Q01DX005 (ip), vehicle: saline with Tween-80
[3] = dose: 200.0 mg/kg/injection, schedule: Q01DX005 (ip), vehicle: saline with Tween-80
[4] = dose: 25.0 mg/kg/injection, schedule: Q01DX009 (ip), vehicle: saline with Tween-80
[5] = dose: 50.0 mg/kg/injection, schedule: Q01DX009 (ip), vehicle: saline with Tween-80
[6] = dose: 60.0 mg/kg/injection, schedule: Q01DX005 (ip), vehicle: saline
[7] = dose: 100.0 mg/kg/injection, schedule: Q01DX009 (ip), vehicle: saline with Tween-80
[8] = dose: 200.0 mg/kg/injection, schedule: Q01DX009 (ip), vehicle: saline with Tween-80

Measured: T/C

Cc1ccc2c(C(=O)O)cc(-c3ccc4c(c3)OCO4)nc2c1
inactive: dose: 50.0 mg/kg/injection, schedule: Q01DX009 (ip), vehicle: Klucel (hydroxypropylcellulose) (HPC) 98 % of control | dose: 100.0 mg/kg/injection, schedule: Q01DX009 (ip), vehicle: Klucel (hydroxypropylcellulose) (HPC) 98 % of control | dose: 200.0 mg/kg/injection, schedule: Q01DX009 (ip), vehicle: Klucel (hydroxypropylcellulose) (HPC) 106 % of control

COc1cc2c(cc1OC)C1CC(CC(N)=O)(C(N)=O)CCN1CC2 (stereo not drawn)
inactive: [1] 97 % of control | [2] 94 % of control | [3] 90 % of control

C=C(Cn1cc(F)c(=O)n(CC(=C)C(=O)OCC)c1=O)C(=O)OCC
inactive: dose: 11.25 mg/kg/injection, schedule: Q04DX002 (ip), vehicle: distilled water + Tween-80 100 % of control | dose: 22.5 mg/kg/injection, schedule: Q04DX002 (ip), vehicle: distilled water + Tween-80 93 % of control | dose: 45.0 mg/kg/injection, schedule: Q04DX002 (ip), vehicle: distilled water + Tween-80 95 % of control | dose: 90.0 mg/kg/injection, schedule: Q04DX002 (ip), vehicle: distilled water + Tween-80 90 % of control | dose: 180.0 mg/kg/injection, schedule: Q04DX002 (ip), vehicle: distilled water + Tween-80 86 % of control

O=C(CC(c1cccnc1)C(C(=O)c1ccc(Cl)cc1)C(CC(=O)c1ccc(Cl)cc1)c1cccnc1)c1ccc(Cl)cc1 (stereo not drawn)
inactive: [1] 90 % of control | [2] 90 % of control | [3] 92 % of control

CC(=O)OCC1OC(n2c(Br)nc3c(N)ncnc32)C(OC(C)=O)C1OC(C)=O (stereo not drawn)
inactive: [1] 103 % of control | [2] 101 % of control | [3] 97 % of control

CCCCNc1ccc(Nc2ccccc2)cc1
inactive: dose: 6.25 mg/kg/injection, schedule: Q01DX009 (ip), vehicle: saline with Tween-80 95 % of control | dose: 12.5 mg/kg/injection, schedule: Q01DX009 (ip), vehicle: saline with Tween-80 108 % of control | [4] 115 % of control | [5] 121 % of control

COC(=O)[C@H]1[C@H]2C[C@@H]3c4[nH]c5cc(OC)ccc5c4CCN3C[C@H]2C[C@@H](OC(=O)c2cccc(N)c2)[C@@H]1OC
inactive: [1] 101 % of control | [2] 97 % of control | [3] 97 % of control

CC1=CC(=O)[C@@H](O)[C@@]2(C)C1C[C@H]1OC(=O)[C@H](C/C=C(/C)C(C)C)[C@H]3C(C)C(O)C4(O)OC[C@@]31C42 (stereo partly drawn)
inactive: dose: 1.0 mg/kg/injection, schedule: Q01DX005 (ip), vehicle: saline with Tween-80 100 % of control | dose: 2.0 mg/kg/injection, schedule: Q01DX005 (ip), vehicle: saline with Tween-80 96 % of control | dose: 4.0 mg/kg/injection, schedule: Q01DX005 (ip), vehicle: saline with Tween-80 95 % of control | dose: 8.0 mg/kg/injection, schedule: Q01DX005 (ip), vehicle: saline with Tween-80 101 % of control

NC(=O)[C@H]1C[C@H](O)CN1C(=O)c1cnc2ccccc2c1
inactive: [6] 112 % of control | dose: 120.0 mg/kg/injection, schedule: Q01DX005 (ip), vehicle: saline 98 % of control | dose: 240.0 mg/kg/injection, schedule: Q01DX005 (ip), vehicle: saline 102 % of control

NC1C(N)C(N)C1N (stereo not drawn)
inactive: dose: 12.5 mg/kg/injection, schedule: Q01DX005 (ip), vehicle: water 102 % of control | dose: 25.0 mg/kg/injection, schedule: Q01DX005 (ip), vehicle: water 102 % of control | dose: 50.0 mg/kg/injection, schedule: Q01DX005 (ip), vehicle: water 102 % of control | dose: 100.0 mg/kg/injection, schedule: Q01DX005 (ip), vehicle: water 98 % of control | dose: 200.0 mg/kg/injection, schedule: Q01DX005 (ip), vehicle: water 94 % of control

CC12CCC3c4ccc(O)cc4CCC3C1C/C(=C\C(=O)O)C2=O (stereo not drawn)
inactive: dose: 3.13 mg/kg/injection, schedule: Q01DX009 (ip), vehicle: Klucel (hydroxypropylcellulose) (HPC) 104 % of control | dose: 6.25 mg/kg/injection, schedule: Q01DX009 (ip), vehicle: Klucel (hydroxypropylcellulose) (HPC) 111 % of control | dose: 12.5 mg/kg/injection, schedule: Q01DX009 (ip), vehicle: Klucel (hydroxypropylcellulose) (HPC) 108 % of control | dose: 25.0 mg/kg/injection, schedule: Q01DX009 (ip), vehicle: Klucel (hydroxypropylcellulose) (HPC) 111 % of control

Cc1ccc(C)c(C(=O)CCN(C)C)c1
inactive: dose: 15.0 mg/kg/injection, schedule: Q01DX005 (ip), vehicle: saline 106 % of control | dose: 30.0 mg/kg/injection, schedule: Q01DX005 (ip), vehicle: saline 94 % of control | [6] 99 % of control and 101 % of control

NC(CS(=O)(=O)NO)C(=O)O (stereo not drawn)
inactive: dose: 60.0 mg/kg/injection, schedule: Q01DX009 (ip), vehicle: saline with Tween-80 97 % of control | dose: 120.0 mg/kg/injection, schedule: Q01DX009 (ip), vehicle: saline with Tween-80 113 % of control | dose: 240.0 mg/kg/injection, schedule: Q01DX009 (ip), vehicle: saline with Tween-80 119 % of control

C=C1C(=O)OC2/C=C(\C)CC(OC(C)=O)/C=C(/CO)CC(OC(=O)/C(C)=C/C)C12 (stereo not drawn)
inactive: dose: 3.75 mg/kg/injection, schedule: Q01DX009 (ip), vehicle: saline + alcohol 90 % of control | dose: 7.5 mg/kg/injection, schedule: Q01DX009 (ip), vehicle: saline + alcohol 98 % of control | dose: 15.0 mg/kg/injection, schedule: Q01DX009 (ip), vehicle: saline + alcohol 93 % of control | dose: 30.0 mg/kg/injection, schedule: Q01DX009 (ip), vehicle: saline + alcohol 86 % of control

CCOC(=O)C(C=O)(NC(=O)c1ccccc1)OCC (stereo not drawn)
inactive: dose: 100.0 mg/kg/injection, schedule: Q04DX003 (ip), vehicle: saline with Tween-80 95 % of control | dose: 200.0 mg/kg/injection, schedule: Q04DX003 (ip), vehicle: saline with Tween-80 90 % of control | dose: 400.0 mg/kg/injection, schedule: Q04DX003 (ip), vehicle: saline with Tween-80 95 % of control

CC1(C)CC(=O)C2=C(C1)OC1=C(C(=O)CC(C)(C)C1)C2c1cccc([N+](=O)[O-])c1
inactive: [4] 104 % of control and 95 % of control | [5] 100 % of control and 93 % of control | [7] 93 % of control and 94 % of control | [8] 93 % of control and 95 % of control

COCc1cccnc1
inactive: dose: 25.0 mg/kg/injection, schedule: Q01DX005 (ip), vehicle: Klucel (hydroxypropylcellulose) (HPC) 97 % of control | dose: 50.0 mg/kg/injection, schedule: Q01DX005 (ip), vehicle: Klucel (hydroxypropylcellulose) (HPC) 93 % of control | dose: 100.0 mg/kg/injection, schedule: Q01DX005 (ip), vehicle: Klucel (hydroxypropylcellulose) (HPC) 88 % of control

Nc1cnc(CO)nc1C(=O)O
inactive: dose: 50.0 mg/kg/injection, schedule: Q01DX005 (ip), vehicle: saline 100 % of control | dose: 100.0 mg/kg/injection, schedule: Q01DX005 (ip), vehicle: saline 102 % of control | dose: 200.0 mg/kg/injection, schedule: Q01DX005 (ip), vehicle: saline 107 % of control

Cc1ccc(S(=O)(=O)/C=C/c2ccc([N+](=O)[O-])o2)cc1
inactive: dose: 50.0 mg/kg/injection, schedule: Q01DX009 (ip), vehicle: suspension in saline 108 % of control | dose: 100.0 mg/kg/injection, schedule: Q01DX009 (ip), vehicle: suspension in saline 104 % of control | dose: 200.0 mg/kg/injection, schedule: Q01DX009 (ip), vehicle: suspension in saline 104 % of control

CC1CCN(C(=O)c2cc(Nc3ccnc4cc(Cl)ccc34)ccc2O)CC1
inactive: dose: 100.0 mg/kg/injection, schedule: Q04DX002 (ip), vehicle: saline with Tween-80 99 % of control | dose: 200.0 mg/kg/injection, schedule: Q04DX002 (ip), vehicle: saline with Tween-80 99 % of control | dose: 400.0 mg/kg/injection, schedule: Q04DX002 (ip), vehicle: saline with Tween-80 89 % of control

COC(=O)/C=C(\C)NC(=NC(C)(C)C)c1ccccc1
inactive: [5] 98 % of control | [7] 101 % of control | [8] 94 % of control

O=[N+]([O-])c1ccc(-c2csc(=[N+]3CCCCC3)s2)cc1
inactive: dose: 6.25 mg/kg/injection, schedule: Q01DX009 (ip), vehicle: water 106 % of control and 114 % of control | dose: 12.5 mg/kg/injection, schedule: Q01DX009 (ip), vehicle: water 114 % of control

C1[Se]CC12C[Se]C2
inactive: dose: 20.0 mg/kg/injection, schedule: Q01DX009 (ip), vehicle: saline with Tween-80 105 % of control

Nc1ncnc2nc(C3OC(CO)C(O)C3O)[nH]c12 (stereo not drawn)
inactive: dose: 60.0 mg/kg/injection, schedule: Q01DX005 (ip), vehicle: saline with Tween-80 104 % of control | dose: 120.0 mg/kg/injection, schedule: Q01DX005 (ip), vehicle: saline with Tween-80 98 % of control | dose: 240.0 mg/kg/injection, schedule: Q01DX005 (ip), vehicle: saline with Tween-80 95 % of control
